Our source for the TGI values is PubChem BioAssay (NCI).

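All cell lines were grown in 96-well plates and treated with compound for 48 hours. TGI marks complete inhibition of growth.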

Experiment in all cases: NCI anticancer screen, dose series, 48 h
Test [1] has as its system M14 melanoma.
Test [2] has as its system ACHN renal.
The subject of test [3] is SK-MEL-28 melanoma.
Test [4] deals with TK-10 renal.
For test [5], the system named is K-562 leukemia.
For test [6], the system named is MOLT-4 leukemia.
Test [7] relates to SN12C renal.
The subject of test [8] is UACC-257 melanoma.
Test [9] relates to OVCAR-8 ovarian.
Test [10] relates to IGROV1 ovarian.
Test [11] concerns SW-620 colon.
For test [12], the system named is A549 NSCLC.
The subject of test [13] is OVCAR-5 ovarian.
Test [14] relates to NCI-H460 lung.
For test [15], the system named is 786-0 renal.
The subject of test [16] is CCRF-CEM leukemia.
Test [17] has as its system HT29 colon.
Test [18] has as its system RPMI-8226 leukemia.

As to `O=C(c1ccccc1)c1ccc(OCCOc2ccc(Nc3ccccc3)cc2)cc1`, the TGI in test [1] is greater than 100 µM; in [2], 84.3 µM; in test [3], greater than 100 µM; in test [4] it was 84.3 µM; in test [5] it was greater than 100 µM; in [6], greater than 100 µM. Moreover, the TGI in [7], in test [8], in [9], in [10], in [11] and in [12] was greater than 100 µM each time. Moreover, the TGI in [13], in test [14], in test [15] and in test [16] was greater than 100 µM in each case.
Regarding `CC1(C)OC(C[C@]2(C#N)C[C@H](CCl)OC(C)(C)O2)C[C@@H](C[C@]2(C#N)C[C@H](CCl)OC(C)(C)O2)O1` (stereo partly specified), the TGI in test [1], in test [2], in test [3], in [4], in test [5] and in [6] was greater than 100 µM throughout. Besides, the TGI in test [17], in test [7], in test [18], in [8], in test [9] and in [10] was greater than 100 µM each time. For the same molecule, the TGI in test [11], in test [12], in test [13], in [14], in [15] and in test [16] was greater than 100 µM each time.
For `CCSC1(SCC)CC(Cc2ccc(OC)cc2)N(C=NC(C)(C)C)C1` (stereo unspecified), the TGI was 32.2 µM in test [1]; greater than 100 µM in test [2]; 88.4 µM in test [3]; 63.2 µM in test [4]; 53.8 µM in test [5]; 40.9 µM in [6]. The TGI was 51.5 µM in test [17]; 84.4 µM in test [7]; 47.5 µM in test [8]; greater than 100 µM in [9]; greater than 100 µM in test [10]; 43.1 µM in test [11]. Also, the TGI was greater than 100 µM in test [12]; greater than 100 µM in [13]; greater than 100 µM in test [14]; greater than 100 µM in test [15]; 52.4 µM in test [16].
`COc1ccc2c3c(n(Cc4ccccc4)c(=O)c2c1)-c1cc(OC)c(OC)cc1C3C` (stereo unspecified): the TGI was greater than 100 µM in test [1]; 43.9 µM in [2]; greater than 100 µM in [3]; greater than 100 µM in [4]; greater than 100 µM in [5]; greater than 100 µM in [6]. Further, the TGI was greater than 84.8 µM in test [17]; greater than 100 µM in test [7]; greater than 100 µM in [18]; greater than 100 µM in test [8]; greater than 100 µM in [9]; greater than 100 µM in [10]. For the same molecule, the TGI was greater than 100 µM in test [11]; greater than 100 µM in test [12]; greater than 100 µM in [13]; 21.7 µM in test [14]; 27.7 µM in test [15]; greater than 100 µM in test [16].
For `O=P1(c2ccccc2)c2ccccc2CCc2ccccc21`, the TGI in test [1], in [3], in test [4], in test [6], in test [7] and in [18] was greater than 100 µM each time. The TGI in [8], in [9], in test [10], in [11], in [12] and in test [15] was greater than 100 µM in each case. This molecule also showed a TGI in [16] greater than 100 µM.
For the molecule `O=C(O)Cc1cccc2c1Oc1ccccc1S2`, the TGI in test [1], in test [2], in test [3], in [4], in test [5] and in [6] was greater than 100 µM each time. The TGI in test [17], in test [7], in test [18], in test [8], in [9] and in [10] was greater than 100 µM throughout. The TGI in test [11], in [12], in [14], in test [15] and in test [16] was greater than 100 µM each time.
Turning to `O=C1CCCC/C1=C1\C(=O)Nc2cc(F)ccc21`, the TGI in test [1], in test [2], in [3], in test [4], in [5] and in test [6] was greater than 100 µM each time. Besides, the TGI in [17], in [7], in test [18], in test [8], in test [9] and in [10] was greater than 100 µM each time. For the same molecule, the TGI in [11], in [12], in test [13], in test [14], in test [15] and in test [16] was greater than 100 µM throughout.
`COc1cc(-c2cc(=O)c3c(O)c(OC)c(OC)c(OC)c3o2)ccc1O`: the TGI in [1] was 81.7 µM; in test [2] it was greater than 100 µM; in [3], greater than 100 µM; in test [4] it was 78.3 µM; in test [5], greater than 100 µM; in test [6], 93.5 µM. For the same molecule, the TGI was 79 µM in test [7]; greater than 100 µM in test [18]; greater than 100 µM in test [8]; 48.4 µM in [9]; 37.2 µM in test [10]; greater than 100 µM in test [11]. Moreover, the TGI in [12] was 90.7 µM; in [13], greater than 100 µM; in test [14], 69.2 µM; in test [15] it was greater than 100 µM; in test [16], greater than 100 µM.
Regarding `CCCc1c[nH]c(-c2ccc(-c3cc(CCC)c(C=O)[nH]3)s2)c1`, the TGI in test [1] was 24.5 µM; in test [2], 33.5 µM; in test [3], 26.5 µM; in test [4] it was 28.7 µM; in test [5], 49.8 µM; in test [6] it was 86.2 µM. The TGI in [17] came to 18.3 µM; in test [7], 30.2 µM; in test [8], 31.2 µM; in test [9], 26.5 µM; in test [10] it was 45.5 µM; in [11], 33.7 µM. In addition, the TGI stood at 17.6 µM in [12], 16.9 µM in [14], 27.7 µM in [15] and 91.4 µM in test [16].
Turning to `CC(O)C(N=Cc1nc(-c2ccccc2)oc1O)C(=O)O` (stereo unspecified), the TGI in test [1], in test [2], in test [3], in [4], in test [5] and in [17] was greater than 100 µM each time. Moreover, the TGI in [18], in test [8], in [9], in [10], in [11] and in test [12] was greater than 100 µM throughout. The TGI in test [13], in test [14], in test [15] and in test [16] was greater than 100 µM each time.
Consider `N#C/C(=C\c1ccc(O)c(O)c1)C(=O)NC1CCC(CC2CCC(NC(=O)/C(C#N)=C/c3ccc(O)c(O)c3)CC2)CC1` (stereo unspecified), for which the TGI was 6.83 µM in test [1]; 4.24 µM in test [2]; greater than 100 µM in test [3]; greater than 54.7 µM in test [4]; 4.93 µM in [5]; greater than 57.5 µM in test [6]. In addition, the TGI in test [17] is 3 µM; in [7] it was 7.23 µM; in test [18], greater than 25.2 µM; in test [8], greater than 24.3 µM; in test [9] it was 10.4 µM; in [11] it was 25.7 µM. In addition, the TGI in test [12] was found to be 4.56 µM; in test [13], 4.09 µM; in test [14] it was 1.13 µM; in test [15], 7.37 µM; in [16], 4.36 µM.
For `Cc1c(-c2nnc(-c3ccc(Cl)cc3)o2)c(=O)n(-c2ccccc2)n1C`, the TGI in [1], in [2], in [3], in [4], in test [5] and in test [6] was greater than 100 µM in each case. Moreover, the TGI in test [17], in test [7], in test [18], in test [8], in test [9] and in test [10] was greater than 100 µM each time. For the same molecule, the TGI in test [11], in [12], in test [14], in test [15] and in test [16] was greater than 100 µM each time.
Turning to `CCCCCC[C@H]1CC(=O)C2CCCC[C@@]23CC[C@H](CCl)N13` (stereo partly specified) (tested in a mixture with another compound), the TGI in test [1], in test [2], in test [3], in test [4], in [5] and in test [17] was greater than 100 µM throughout. The TGI in test [7] is greater than 100 µM; in test [18], 61.6 µM; in [8], greater than 100 µM; in test [9], 64.6 µM; in test [10], greater than 100 µM; in test [12], greater than 100 µM. Also, the TGI in test [13] is greater than 100 µM; in test [14], greater than 100 µM; in test [15], greater than 100 µM; in [16], 90.5 µM.
